From the CheMixHub ionic liquid set

Experiment: xn = mol fraction of the nth substance listed

F[P-](F)(F)(F)(F)F.[Li+] + CC[n+]1ccn(C)c1.O=S(=O)([N-]S(=O)(=O)C(F)(F)F)C(F)(F)F
electrical conductivity [S/m], 101 kPa
Conditions | x2 = 0.7088 | x2 = 0.729 | x2 = 0.8022 | x2 = 0.8765 | x2 = 0.9623
288.15 K | – | 0.124 | 0.208 | 0.431 | 0.52
298.15 K | 0.195 | 0.222 | 0.355 | 0.651 | 0.775
333.15 K | 0.816 | 0.865 | 1.17 | 1.72 | 1.95

F[P-](F)(F)(F)(F)F.[Li+] + CC[n+]1ccn(C)c1.O=S(=O)([O-])C(F)(F)F
electrical conductivity [S/m], 101 kPa
Conditions | x1 = 0.007746 | x1 = 0.01537 | x2 = 0.9673 | x2 = 0.9746
288.15 K | 0.614 | 0.559 | – | 0.532
298.15 K | 0.898 | 0.816 | 0.786 | 0.785
333.15 K | 2.3 | 2.08 | 2.08 | 2.02

O=C(O)CC(=O)O + CC[n+]1ccn(C)c1.[Cl-]
Conditions | viscosity [mPa·s]
303.15 K, 101.33 kPa, x2 = 0.667 | 138.9

[Cl][Al]([Cl])[Cl] + CC[n+]1ccn(C)c1.[Cl-]
101 kPa
Conditions | electrical conductivity [S/m]
263 K, frequency 0.1 MHz, x1 = 0.5455 | 0.14
263 K, frequency 0.1 MHz, x1 = 0.5652 | 0.13
263 K, frequency 0.1 MHz, x1 = 0.5833 | 0.57
263 K, frequency 0.1 MHz, x1 = 0.6 | 0.36
263 K, frequency 0.1 MHz, x1 = 0.6296 | 0.35
273 K, frequency 0.1 MHz, x1 = 0.5455 | 0.59
273 K, frequency 0.1 MHz, x1 = 0.5652 | 0.92
273 K, frequency 0.1 MHz, x1 = 0.5833 | 0.84
273 K, frequency 0.1 MHz, x1 = 0.6 | 0.53
273 K, frequency 0.1 MHz, x1 = 0.6296 | 0.52
283 K, frequency 0.1 MHz, x1 = 0.5238 | 1.24
283 K, frequency 0.1 MHz, x1 = 0.5455 | 1.34
283 K, frequency 0.1 MHz, x1 = 0.5652 | 1.33
283 K, frequency 0.1 MHz, x1 = 0.5833 | 1.13
283 K, frequency 0.1 MHz, x1 = 0.6 | 0.73
283 K, frequency 0.1 MHz, x1 = 0.6296 | 0.73
293 K, frequency 0.1 MHz, x1 = 0.5238 | 1.58
293 K, frequency 0.1 MHz, x1 = 0.5455 | 1.81
293 K, frequency 0.1 MHz, x1 = 0.5652 | 1.73
293 K, frequency 0.1 MHz, x1 = 0.6 | 0.96
293 K, frequency 0.1 MHz, x1 = 0.6296 | 0.99
303 K, frequency 0.1 MHz, x1 = 0.5238 | 2.05
303 K, frequency 0.1 MHz, x1 = 0.5455 | 2.47
303 K, frequency 0.1 MHz, x1 = 0.5652 | 2.3
303 K, frequency 0.1 MHz, x1 = 0.5833 | 1.89
303 K, frequency 0.1 MHz, x1 = 0.6 | 1.25
303 K, frequency 0.1 MHz, x1 = 0.6296 | 1.29
303.15 K, frequency 0 MHz, x1 = 0.6 | 1.92
303.15 K, frequency 0 MHz, x1 = 0.63 | 1.8
303.15 K, frequency 0 MHz, x1 = 0.67 | 1.64
306.15 K, frequency 1 MHz, x2 = 0.556 | 1.46
306.15 K, frequency 1 MHz, x2 = 0.67 | 0.409
313 K, frequency 0.1 MHz, x1 = 0.5238 | 2.58
313 K, frequency 0.1 MHz, x1 = 0.5652 | 2.95
313 K, frequency 0.1 MHz, x1 = 0.5833 | 2.34
313 K, frequency 0.1 MHz, x1 = 0.6 | 1.64
313 K, frequency 0.1 MHz, x1 = 0.6296 | 1.52
323 K, frequency 0.1 MHz, x1 = 0.5238 | 3.35
323 K, frequency 0.1 MHz, x1 = 0.5455 | 3.65
323 K, frequency 0.1 MHz, x1 = 0.5652 | 3.37
323 K, frequency 0.1 MHz, x1 = 0.5833 | 2.85
323 K, frequency 0.1 MHz, x1 = 0.6 | 2.18
323 K, frequency 0.1 MHz, x1 = 0.6296 | 1.83
333 K, frequency 0.1 MHz, x1 = 0.5238 | 4.09
333 K, frequency 0.1 MHz, x1 = 0.5455 | 3.96
333 K, frequency 0.1 MHz, x1 = 0.5652 | 4.11
333 K, frequency 0.1 MHz, x1 = 0.5833 | 3.04
333 K, frequency 0.1 MHz, x1 = 0.6 | 2.4
333 K, frequency 0.1 MHz, x1 = 0.6296 | 2.16
342.1 K, frequency 0.1 MHz, x1 = 0.5238 | 5.15
343 K, frequency 0.1 MHz, x1 = 0.5455 | 4.63
343 K, frequency 0.1 MHz, x1 = 0.5652 | 4.72
343 K, frequency 0.1 MHz, x1 = 0.5833 | 3.21
343 K, frequency 0.1 MHz, x1 = 0.6 | 2.82
343 K, frequency 0.1 MHz, x1 = 0.6296 | 2.49
352.1 K, frequency 0.1 MHz, x1 = 0.5238 | 6.3
353 K, frequency 0.1 MHz, x1 = 0.5652 | 5.34
353 K, frequency 0.1 MHz, x1 = 0.5833 | 4.2
353 K, frequency 0.1 MHz, x1 = 0.6 | 3.2
353 K, frequency 0.1 MHz, x1 = 0.6296 | 2.95
362.1 K, frequency 0.1 MHz, x1 = 0.6 | 3.69
363 K, frequency 0.1 MHz, x1 = 0.5238 | 6.4
363 K, frequency 0.1 MHz, x1 = 0.5455 | 5.69
363 K, frequency 0.1 MHz, x1 = 0.5652 | 5.87
363 K, frequency 0.1 MHz, x1 = 0.5833 | 4.33
363 K, frequency 0.1 MHz, x1 = 0.6296 | 3.3

101.3 kPa
Conditions | electrical conductivity [S/m]
270.1 K, x2 = 0.3333 | 0.533
270.4 K, x2 = 0.4348 | 0.75
270.6 K, x2 = 0.5556 | 0.36
271.1 K, x2 = 0.3636 | 0.6
271.1 K, x2 = 0.4 | 0.702
275.6 K, x2 = 0.4 | 0.822
275.6 K, x2 = 0.5263 | 0.832
275.6 K, x2 = 0.5556 | 0.471
276.1 K, x2 = 0.3333 | 0.711
276.1 K, x2 = 0.4348 | 0.901
277.1 K, x2 = 0.3636 | 0.798
280.6 K, x2 = 0.4348 | 1.01
281.1 K, x2 = 0.3636 | 0.946
281.1 K, x2 = 0.4 | 1.06
281.1 K, x2 = 0.4762 | 1.18
281.1 K, x2 = 0.5 | 1.28
281.1 K, x2 = 0.5263 | 1.03
281.1 K, x2 = 0.5556 | 0.595
282.1 K, x2 = 0.3333 | 0.896
288.15 K, x2 = 0.4348 | 1.34
290.15 K, x2 = 0.3636 | 1.33
290.15 K, x2 = 0.4762 | 1.59
290.65 K, x2 = 0.4 | 1.4
290.65 K, x2 = 0.5263 | 1.4
290.65 K, x2 = 0.5556 | 0.87
291.15 K, x2 = 0.5 | 1.83
292.15 K, x2 = 0.3333 | 1.23
303.15 K, x2 = 0.3333 | 1.65
303.15 K, x2 = 0.3636 | 1.82
303.15 K, x2 = 0.5263 | 1.93
303.15 K, x2 = 0.5556 | 1.33
304.15 K, x2 = 0.4762 | 2.42
304.15 K, x2 = 0.5 | 2.57
305.15 K, x2 = 0.4 | 2.03
305.15 K, x2 = 0.4348 | 2.24
309.15 K, x2 = 0.5556 | 1.57
312.65 K, x2 = 0.5263 | 2.46
314.15 K, x2 = 0.4348 | 2.69
314.65 K, x2 = 0.4 | 2.48
315.65 K, x2 = 0.3636 | 2.3
316.15 K, x2 = 0.3333 | 2.12
317.65 K, x2 = 0.4762 | 3.2
317.65 K, x2 = 0.5 | 3.3
320.15 K, x2 = 0.5556 | 2.21
321.15 K, x2 = 0.5263 | 3.01
323.15 K, x2 = 0.3333 | 2.46
323.15 K, x2 = 0.3636 | 2.64
323.15 K, x2 = 0.4 | 2.92
324.15 K, x2 = 0.4348 | 3.2
324.15 K, x2 = 0.4762 | 3.63
324.15 K, x2 = 0.5 | 3.79
330.15 K, x2 = 0.5556 | 2.71
331.15 K, x2 = 0.4 | 3.4
331.15 K, x2 = 0.5263 | 3.65
332.15 K, x2 = 0.4348 | 3.7
332.15 K, x2 = 0.4762 | 4.14
332.65 K, x2 = 0.5 | 4.37
333.15 K, x2 = 0.3333 | 2.93
334.15 K, x2 = 0.3636 | 3.18
341.15 K, x2 = 0.4348 | 4.28
342.15 K, x2 = 0.4 | 4.02
342.15 K, x2 = 0.4762 | 4.9
342.15 K, x2 = 0.5 | 5.03
342.15 K, x2 = 0.5263 | 4.39
343.15 K, x2 = 0.3333 | 3.38
343.15 K, x2 = 0.3636 | 3.64
344.15 K, x2 = 0.5556 | 3.63
350.65 K, x2 = 0.4 | 4.54
351.15 K, x2 = 0.4348 | 4.88
352.15 K, x2 = 0.5263 | 5.04
353.15 K, x2 = 0.3333 | 3.88
353.15 K, x2 = 0.3636 | 4.2
353.15 K, x2 = 0.4762 | 5.63
353.15 K, x2 = 0.5 | 5.79
353.15 K, x2 = 0.5556 | 4.27
361.15 K, x2 = 0.4 | 5.18
361.15 K, x2 = 0.4348 | 5.54
361.15 K, x2 = 0.4762 | 6.35
361.15 K, x2 = 0.5 | 6.43
363.15 K, x2 = 0.3333 | 4.45
363.15 K, x2 = 0.3636 | 4.8
363.15 K, x2 = 0.5263 | 5.91
364.15 K, x2 = 0.5556 | 5.09
370.15 K, x2 = 0.3333 | 4.82
370.15 K, x2 = 0.3636 | 5.19
371.15 K, x2 = 0.4 | 5.84
371.15 K, x2 = 0.4348 | 6.23
371.15 K, x2 = 0.4762 | 7.02
371.15 K, x2 = 0.5 | 7.19
372.15 K, x2 = 0.5263 | 6.56
374.15 K, x2 = 0.5556 | 5.89
